# System: primary astrocytes
# Test: Extracellular medium acidification (SNARF5) assay in astrocytes
# Assay type: cell-based
# Conditions: Mus musculus, Astrocyte; astrocytes in vitro; compounds 10 nM to 30 μM; read-out: Activity (EC50 class, extracellular medium acidification SNARF5)
# Method: To assess for the effect of the compounds of the invention, those were tested in primary mouse astrocytes and astrocytes differentiated from human-derived induced pluripotent stem cells (iPSCs). Secretion of lactate was measured indirectly through the acidification of extracellular medium using extracellular pH sensor SNARE-5F-(AND-6)-CAR (SNARF5) as described below.
# (§1) Primary cultures of cerebrocortical astrocytes were obtained from 1 to 2-day-old OF1 mouse pups (Charles River Laboratories). Briefly, cortices were isolated and minced in small pieces under a dissecting microscope. The cells were incubated for 30 min at 37° C. in a solution containing 20 U/ml papain, 1 mM L-cysteine and 10 kU/ml DNase I. After dissociation, papain activity was stopped by the addition of fetal calf serum (FCS). Single-cell suspension was then obtained by mechanical dissociation, which consisted in cells trituration in a DMEM D7777 medium supplemented with 44 mm NaHCO3, 10 ml/L antibiotic/antimycotic solution and 10% FCS. The cells were seeded at an average density of ˜10′000 cells/cm^2 on poly-D-lysine coated 96- or 12-well culture plates, depending on their use, and grown in DMEM D7777 medium supplemented with 44 mm NaHCO3, 10 ml/L antibiotic/antimycotic solution and 10% FCS at 37° C. in a humidified atmosphere containing 5% CO2/95% air. Culture medium was renewed twice a week. Cells were stimulated and harvested between DIV14 and DIV17, when confluence and cell growth were optimal.
# Secretion of lactate was measured indirectly through the acidification of extracellular medium using extracellular pH sensor SNARF-5F-(AND-6)-CAR (SNARF5). After washing cells twice with stimulation medium (DMEM (D5030, Sigma), 1 mM […], and 5 mM Glucose, pH 7.4) at 37° C., cells were stimulated with compounds at a final concentration ranging from 10 nM to 30 μM in 50 μl per well of stimulation medium supplemented with 10 μM of SNARF5 (Life Technologies Corporation). Each compound was tested in two different plates for duplicates. After 30, 60 and 90 min stimulation, fluorescence was read at exc. (excitation) 480 nm/emm. (emission) 580 nm and at exc 480 nm/emm. 630 nm. The ratio of fluorescence between 630 nm and 580 emission values, which is proportional to extracellular pH, was calculated. In each plate, 8 wells were used for negative controls (DMSO 0.1%) and 8 wells were used for positive controls (CCCP 2 μM in DMSO). Results are shown as % of positive control effect (0% and 100% being activities of the Veh and positive control, respectively).
row,SMILES,EC50 [µM]
1,"CCOc1cc2ccnc(Nc3ccc(S(C)(=O)=O)cc3)c2cc1OCC [Compound 8, 6,7-diethoxy-N-(4-methylsulfonylphenyl)isoquinolin-1-amine]",< 1
2,"COc1cc2ccnc(Nc3ccc(N4CCCC4=O)cc3)c2cc1OC [Compound 9, 1-[4-[(6,7-dimethoxy-1-isoquinolyl)amino]phenyl]pyrrolidin-2-one]",< 1
3,"COc1cc2ccnc(Nc3ccc(S(C)(=O)=O)cc3)c2cc1NCc1ccccc1 [Compound 20, N7-benzyl-6-methoxy-N1-(4-methylsulfonylphenyl)isoquinoline-1,7-diamine]",< 1
4,"COc1cc2ccnc(Nc3ccc(S(C)(=O)=O)cc3)c2cc1NCC1CC1 [Compound 21, N7-(cyclopropylmethyl)-6-methoxy-N1-(4-methylsulfonylphenyl)isoquinoline-1,7-diamine]",< 1
5,"CCCNc1cc2c(Nc3ccc(S(C)(=O)=O)cc3)nccc2cc1OC [Compound 22, 6-methoxy-N1-(4-methylsulfonylphenyl)-N7-propyl-isoquinoline-1,7-diamine]",< 1
6,"COc1cc2c(Nc3ccc(S(C)(=O)=O)cc3)nccc2cc1NCC1CC1 [Compound 23, N6-(cyclopropylmethyl)-7-methoxy-N1-(4-methylsulfonylphenyl)isoquinoline-1,6-diamine]",< 1
7,"COc1cc2c(Nc3ccc(S(C)(=O)=O)cc3)nccc2cc1N1CCC1 [Compound 24, 6-(azetidin-1-yl)-7-methoxy-N-(4-methylsulfonylphenyl)isoquinolin-1-amine]",< 1
8,"CCOc1cc2ccnc(Nc3ccc(S(=O)(=O)CC)cc3)c2cc1OCC [Compound 26, N-[4-(ethanesulfonyl)phenyl]-6,7-diethoxyisoquinolin-1-amine]",< 1
9,"CCOc1cc2ccnc(Nc3ccc(C4COC4)cc3)c2cc1OCC [Compound 27, 6,7-diethoxy-N-[4-(oxetan-3-yl)phenyl]isoquinolin-1-amine]",< 1
10,"CCOc1cc2ccnc(Nc3ccc(-c4ccon4)cc3)c2cc1OCC [Compound 28, 6,7-diethoxy-N-[4-(1,2-oxazol-3-yl)phenyl]isoquinolin-1-amine]",< 1
11,"CCOc1cc2ccnc(Nc3ccc(-c4ccno4)cc3)c2cc1OCC [Compound 29, 6,7-diethoxy-N-[4-(1,2-oxazol-5-yl)phenyl]isoquinolin-1-amine]",< 1
12,"CCOc1cc2ccnc(Nc3ccc(S(C)(=O)=O)c(F)c3)c2cc1OCC [Compound 30, 6,7-diethoxy-N-(3-fluoro-4-methanesulfonylphenyl)isoquinolin-1-amine]",< 1
13,"CCOc1cc2ccnc(Nc3ccc(S(C)(=O)=O)cc3F)c2cc1OCC [Compound 31, 6,7-diethoxy-N-(2-fluoro-4-methanesulfonylphenyl)isoquinolin-1-amine]",< 1
14,"CCOc1cc2ccnc(Nc3ccc(S(=O)(=O)C4CC4)cc3)c2cc1OCC [Compound 32, N-[4-(cyclopropanesulfonyl)phenyl]-6,7-diethoxyisoquinolin-1-amine]",< 1
15,"CCOc1cc2ccnc(Nc3ccc(S(C)(=O)=O)cc3)c2cc1OCCF [Compound 33, 6-ethoxy-7-(2-fluoroethoxy)-N-(4-methanesulfonylphenyl)isoquinolin-1-amine]",< 1
16,"CS(=O)(=O)c1ccc(Nc2nccc3cc(OCCF)c(OCCF)cc23)cc1 [Compound 34, 6,7-bis(2-fluoroethoxy)-N-(4-methanesulfonylphenyl)isoquinolin-1-amine]",< 1
17,"CC(C)Oc1ccc2c(Cc3ccc(S(C)(=O)=O)cc3)nccc2c1 [Compound 35, 1-[(4-methanesulfonylphenyl)methyl]-6-(propan-2-yloxy)isoquinoline]",< 1
18,"CS(=O)(=O)c1ccc(Nc2nccc3cc(OCc4ccc(F)cc4)ccc23)cc1 [Compound 36, 6-[(4-fluorophenyl)methoxy]-N-(4-methanesulfonylphenyl)isoquinolin-1-amine]",< 1

# Results, then the compound that gave them:
row,EC50 [µM],SMILES
1,< 1,"CS(=O)(=O)c1ccc(Nc2nccc3cc(O)c(O)cc23)cc1 [Compound 5, 1-(4-methylsulfonylanilino)isoquinoline-6,7-diol]"
2,> 1,"CCOc1cc2ccnc(Nc3ccc(S(C)(=O)=O)cc3)c2cc1O [Compound 6, 6-ethoxy-1-(4-methylsulfonylanilino)isoquinolin-7-ol]"
3,> 1,"CCOc1cc2c(Nc3ccc(S(C)(=O)=O)cc3)nccc2cc1O [Compound 7, 7-ethoxy-1-(4-methylsulfonylanilino)isoquinolin-6-ol]"
4,< 1,"C=COc1ccc2c(Nc3ccc(S(C)(=O)=O)cc3)nccc2c1 [Compound 10, N-(4-methylsulfonylphenyl)-6-vinyloxy-isoquinolin-1-amine]"
5,< 1,"CC(C)Oc1ccc2c(Nc3ccc(S(C)(=O)=O)cc3)nccc2c1 [Compound 11, 6-isopropoxy-N-(4-methylsulfonylphenyl)isoquinolin-1-amine]"
6,< 1,"CS(=O)(=O)c1ccc(Nc2nccc3cc(-c4ncccn4)ccc23)cc1 [Compound 12, N-(4-methylsulfonylphenyl)-6-pyrimidin-2-yl-isoquinolin-1-amine]"
7,> 1,"CS(=O)(=O)c1ccc(Nc2nccc3ccc(O)cc23)cc1 [Compound 13, 1-(4-methylsulfonylanilino)isoquinolin-7-ol]"
8,< 1,"CC(=O)Nc1ccc2ccnc(Nc3ccc(S(C)(=O)=O)cc3)c2c1 [Compound 14, N-[1-(4-methylsulfonylanilino)-7-isoquinolyl]acetamide]"
9,> 1,"CCNc1ccc2ccnc(Nc3ccc(S(C)(=O)=O)cc3)c2c1 [Compound 15, N7-ethyl-N1-(4-methylsulfonylphenyl)isoquinoline-1,7-diamine]"
10,< 1,"C=Cc1cc2c(Nc3ccc(S(C)(=O)=O)cc3)nccc2cc1OC [Compound 16, 6-methoxy-N-(4-methylsulfonylphenyl)-7-vinyl-isoquinolin-1-amine]"
11,< 1,"CCc1cc2c(Nc3ccc(S(C)(=O)=O)cc3)nccc2cc1OC [Compound 17, 7-ethyl-6-methoxy-N-(4-methylsulfonylphenyl)isoquinolin-1-amine]"
12,< 1,"CCc1cc2c(Nc3ccc(S(C)(=O)=O)cc3)nccc2cc1O [Compound 18, 7-ethyl-1-(4-methylsulfonylanilino)isoquinolin-6-ol]"
13,< 1,"CS(=O)(=O)c1ccc(Nc2nccc3cc(O)c(Br)cc23)cc1 [Compound 19, 7-bromo-1-(4-methylsulfonylanilino)isoquinolin-6-ol]"
14,< 1,"CCc1cc2ccnc(Nc3ccc(S(C)(=O)=O)cc3)c2cc1O [Compound 25, 6-ethyl-1-[(4-methanesulfonylphenyl)amino]isoquinolin-7-ol]"
15,< 1,"CCCc1cc2c(Nc3ccc(S(C)(=O)=O)cc3)nccc2cc1OCC [Compound 37, 6-ethoxy-N-(4-methanesulfonylphenyl)-7-propylisoquinolin-1-amine]"

# System: primary astrocytes
# Test: MTT mitochondrial activity assay in primary astrocytes
# Assay type: cell-based, mouse
# Conditions: different concentrations, after 1.5 h or 24 h
# Method: as §1
# To monitor mitochondrial activity in astrocytes, which is linked to the metabolic process of glycolysis and production of lactate, astrocytes in 96-well plates were stimulated for 24 h (37° C. 5% CO2/95% air) with the compounds of the invention ranging from 10 nM to 10 μM.
# After stimulation, 5 mg/ml thiazol blue tetrazolium bromide (MTT) in D5030 medium complemented with 5 mM D-glucose and 44 mM sodium bicarbonate (pH 7.2) was added to each well, and cells were incubated for 4 h at 37° C. (5% CO2). The medium was then removed and the amount of reduced MTT, i.e formazan, solubilized in DMSO (50 μl/well) was determined using a spectrophotometer (absorbance of 570 nm).
# The mitochondrial activity was monitored in MTT colorimetric assay in primary astrocytes treated with Compounds (1), (2), (3), (4) (5), (9) and (10) at different concentrations after 1.5 h (FIG. 2 A, B, D, E, F, C, H, respectively) or 24 h (FIG. 2 H, I, K, L, M, J, N, respectively).
row,SMILES,mitochondrial activity (MTT colorimetric assay)
1,"CS(=O)(=O)c1ccc(Nc2nccc3cc(O)c(O)cc23)cc1 [Compound 5, 1-(4-methylsulfonylanilino)isoquinoline-6,7-diol]",none of the selected compounds had direct effect on mitochondrial activity
2,"COc1cc2ccnc(Nc3ccc(N4CCCC4=O)cc3)c2cc1OC [Compound 9, 1-[4-[(6,7-dimethoxy-1-isoquinolyl)amino]phenyl]pyrrolidin-2-one]",none of the selected compounds had direct effect on mitochondrial activity
3,"C=COc1ccc2c(Nc3ccc(S(C)(=O)=O)cc3)nccc2c1 [Compound 10, N-(4-methylsulfonylphenyl)-6-vinyloxy-isoquinolin-1-amine]",none of the selected compounds had direct effect on mitochondrial activity

# — patent US20260125357A1, “LACTATE ENHANCING COMPOUNDS AND USES THEREOF” (GLIAPHARM SA, priority 2022, published 2026)
